Data set [1] deals with polymerase-nucleic acid complexes (ternary complexes). Description: Stripping nucleotides from ternary complexes: crosstalk metrics after NSB wash in 2x2 examination sequencing. It is filed as biochemical. The following applies: for A_T crosstalk (Cy5-dATP carryover from first exam into second exam) compared to NSB having isopropanol / C_G crosstalk (carryover of C signal from first exam into G channel of second exam) compared to NSB having isopropanol: alternating cycles vs 20% v/v isopropanol (SOP); for Concentration range in NSB found effective: other concentrations tested in addition to Table 1; for Capability of stripping nucleotides from ternary complexes while retaining polymerase on primed-template nucleic acid: candidate in NSB; for Overall performance of NSB having candidate vs NSB having isopropanol: vs 20% v/v isopropanol (SOP) NSB. The procedure:
Template nucleic acid strands synthesized in 12 PCR reactions were prepared, and then independently bound to beads. […] Beads harboring immobilized template strands were then attached to the inner surface of a flow cell. Sequencing was performed for 22 cycles, where each cycle included subroutines for (i) Extension: adding a reversibly terminated nucleotide to primers that were hybridized to the immobilized templates, (ii) Examination: forming and detecting stabilized ternary complexes on the reversibly terminated, immobilized primer-template hybrids, and (iii) Activation: cleaving the reversible terminator from the extended primers.
The Examination subroutine was performed in a 2×2 format as diagrammed in FIG. 1. Specifically, a mixture of Cy5 labelled dATP, Cy7 labelled dCTP, unlabeled dTTP and unlabeled dGTP was delivered to the flow cell that contained polymerase-nucleic acid complexes on the beads, the system paused fluid flow to allow nucleotides to bind at cognate positions of the templates, thereby forming ternary complexes. Free nucleotide was removed from the flow cell by flowing IMG reagent. […] The flow cell was then imaged via fluorescence microscopy to detect ternary complexes that contained a labeled nucleotide that was a cognate for the next correct nucleotide in each of the template nucleic acids. The flow cell was then washed with NSB solutions having various compositions as set forth below. After the NSB wash, a mixture of Cy5 labelled dTTP, Cy7 labelled dGTP, unlabeled dCTP and unlabeled dATP was delivered to the flow cell, and the system paused fluid flow to allow nucleotides to bind, thereby forming ternary complexes. Free nucleotide was removed by flowing IMG reagent and then the flow cell was again imaged.
The concentrations are provided as a percentage in weight of compound per total volume of NSB (w/v) or volume of compound per total volume of NSB (v/v). The concentration can also be expressed as a molar concentration and this can be helpful, for example, as a way to compare the amounts of each compound tested. […] The molar concentrations of 1,5 pentanediol, propylene glycol, hexylene glycol, sulfolane, DMSO, ethyl methyl sulfone and 2-mthoxy ethanol in NSB were similar to the molar concentration of isopropanol in the SOP NSB.
The effectiveness of each candidate compound was determined from the following crosstalk metrics. The A_T crosstalk metric indicates how much Cy5-dATP is carried over from the first exam such that it is detected in the second exam. Similarly, the C_G crosstalk metric indicates how much Cy7-dCTP is carried over from the first exam such that it is detected in the second exam. A lower value for the crosstalk metric indicates less carryover and is correlated with improved sequencing results. On the other hand, a higher value for the crosstalk metric indicates more carryover and lower quality sequencing results.
Results were evaluated as a comparison of crosstalk metrics measured for NSB having 20% v/v/isopropanol (SOP) compared to the crosstalk metric measured for NSB having each of the respective candidate compounds. In all cases, the comparisons were based on data obtained for sequencing runs performed in a single lane of a flow cell. The format of the run was as follows: Cycle_1(SOP)=>Cycle_2(candidate)=>Cycle_3(SOP)=>Cycle_4(candidate) and so on. The crosstalk metric was determined separately for the SOP and candidate cycles, respectively. This format was used to minimize the confounding influence of run-to-run variations when comparing between SOP and each candidate.

The nature of data set [2]: Stability of NSB fluid foam in a flow cell. The following applies: 28% 1,6 hexanediol or 20% isopropanol, 55° C., images before and after 1 minute pause in flow. Format: physicochemical. The protocol: NSB fluid foam having 20% isopropanol (SOP) or 28% 1,6 hexanediol was flowed through a flow cell (40 μl/s flow rate, 300 μl volume, 35 psi positive pressure, 55° C.). The flow was paused and a first image of the foam was acquired immediately. The foam was allowed to sit for 60 seconds and then a second image was taken.

A short description of data set [3]: Flammability.
The nature of data set [4]: Solubility of candidate compound in NSB. It is filed as physicochemical. The following applies: NSB solution.
The mark [5] stands for this setting: NSB with candidate at Table 1 concentration, lower = less carryover.

As for `OCCCCCO` [1,5 pentanediol], in data set [1] (setting [5]), the “A_T crosstalk (Cy5-dATP carryover from first exam into second exam) compared to NSB having isopropanol” value is listed as “stronger”, the “C_G crosstalk (carryover of C signal from first exam into G channel of second exam) compared to NSB having isopropanol” value is reported as “stronger”, the A_T crosstalk metric result is “about 0.16” and the C_G crosstalk metric result was “about 0.16”.

In the case of `CCS(C)(=O)=O` [ethyl methyl sulfone], in data set [1] (setting [5]), the “A_T crosstalk (Cy5-dATP carryover from first exam into second exam) compared to NSB having isopropanol” value is given as “stronger” and the A_T crosstalk metric entry was “below 0.2”. Moreover, in data set [1], the “Concentration range in NSB found effective” value (“Concentration range” below) is 1.4-2.8%.

Regarding `C[S+](C)[O-]` [DMSO, dimethyl sulfoxide], in data set [1] (setting [5]), the “A_T crosstalk (Cy5-dATP carryover from first exam into second exam) compared to NSB having isopropanol” value is “stronger” and the A_T crosstalk metric entry is listed as “below 0.35”. Besides, in data set [1], the “Concentration range” value is recorded as 21-26%.

As to `CC(O)CO` (stereo not drawn) [Propylene glycol], in data set [1], the “Capability of stripping nucleotides from ternary complexes while retaining polymerase on primed-template nucleic acid” value (“Capability of stripping nucleotides” for short) is recorded as “capable of stripping nucleotides from ternary complexes while retaining polymerase association with primed-template nucleic acid” and the “Overall performance of NSB having candidate vs NSB having isopropanol” value (from here on “Overall performance … vs NSB having isopropanol”) is recorded as “did not perform as well as isopropanol”.

As for `O=S1(=O)CCCC1` [sulfolane], in data set [1] (setting [5]), the “A_T crosstalk (Cy5-dATP carryover from first exam into second exam) compared to NSB having isopropanol” value is given as “comparable” and the “C_G crosstalk (carryover of C signal from first exam into G channel of second exam) compared to NSB having isopropanol” value is on record as “better”. Further, the “Overall performance … vs NSB having isopropanol” value in data set [1] is “outperformed NSB having isopropanol”.

As to `CC(O)CCO` (stereo not drawn) [1,3 butanediol], in data set [1], the “Capability of stripping nucleotides” value is recorded as “capable of stripping nucleotides from ternary complexes while retaining polymerase association with primed-template nucleic acid” and the “Overall performance … vs NSB having isopropanol” value was “did not perform as well as isopropanol”.

As to `OCCCCCCO` [1,6 hexanediol], the Foam stability result in data set [2] is “greater foam stability”. For the same compound, in data set [1] (setting [5]), the “A_T crosstalk (Cy5-dATP carryover from first exam into second exam) compared to NSB having isopropanol” value is reported as “modestly lower” and the “C_G crosstalk (carryover of C signal from first exam into G channel of second exam) compared to NSB having isopropanol” value was “significantly lower”. Further, in data set [1], the “Concentration range” value is 10-31% and the “Overall performance … vs NSB having isopropanol” value is “outperformed NSB having isopropanol”. Further, the Flammability entry in data set [3] was “non-flammable”.

With hexylene glycol, in data set [1], the “Capability of stripping nucleotides” value is “capable of stripping nucleotides from ternary complexes while retaining polymerase association with primed-template nucleic acid” and the “Overall performance … vs NSB having isopropanol” value is recorded as “did not perform as well as isopropanol”.

As to `CC(C)O` [Isopropanol, reference compound], in data set [2], the Foam stability result is listed as “foam can be maintained to some degree”. The “Concentration range” value in data set [1] is listed as 16-20%.

For the compound `OCCCCCCCCO` [1,8 octanediol], the “Solubility in NSB” value in data set [4] is “not immediately soluble”.

As to `OCCCCCCCO` [1,7 heptanediol], in data set [1] (setting [5]), the “A_T crosstalk (Cy5-dATP carryover from first exam into second exam) compared to NSB having isopropanol” value is recorded as “better” and the “C_G crosstalk (carryover of C signal from first exam into G channel of second exam) compared to NSB having isopropanol” value is given as “better”. The “Overall performance … vs NSB having isopropanol” value in data set [1] was “outperformed NSB having isopropanol”.

Consider `NCCCO` [3-Amino-1-propanol], for which the “Capability of stripping nucleotides” value in data set [1] is reported as “can also be useful”.

With `COCCO` [2-methoxy ethanol], the “Capability of stripping nucleotides” value in data set [1] is “can also be useful”.

The values are drawn from patent US20230183798A1, “COMPOSITIONS AND METHODS FOR MODIFYING POLYMERASE-NUCLEIC ACID COMPLEXES” (Pacific Biosciences of California, Inc., priority 2020, published 2023).
